# Data reported in patent US7390462B2, “Ratiometric fluorescent pH sensor for non-invasive monitoring” (The University of Maryland Baltimore County, priority 2002, dated 2008).
# Like-named read-outs stand apart in the source and are kept apart here.
# What was measured:
# [1] = physchem; type: physicochemical
# Description: Fluorescence measurements were recorded with a Varian Cary Eclipse fluorescence spectrophotometer. A solid sample/cuvette holder designed for front-face measurements was used to measure sensor patches that were fixed to the inside front wall of a PMMA disposable cuvette. Excitation light was fixed at an angle of incidence of 30°. Solutions were measured in regular 90° configuration. Cuvettes containing sensor patches were equilibrated in buffered saline solutions ranging in pH from 5 to 10. Uncorrected excitation and emission spectra were recorded for each sample. For comparison, solutions of DHDS and HPTS were also prepared and tested at the same pH values.
# FIG. 3 depicts the calibration curves of excitation intensity ratio versus pH for DHDS solution, HPTS solution and the immobilized HPDS. Sensors comprising HDPS-PEG layers were calibrated in buffered saline solutions that ranged in pH from 5 to 10. In each case, the appropriate buffering species, i.e., phosphate, tris or bicarbonate, was at 10 mM and the desired ionic strength, e.g., 20, 150 or 300 mM, was made up with sodium chloride salt. Cuvettes containing sensor patches were equilibrated in each solution. For comparison 1 μM solutions of DHDS and HPTS also were prepared and tested over the same pH range.
# Calibration curves for HPTS and MA-HPDS were fit to the following expression (25) describing intensity ratio (R) of monoprotic indicator dyes as a function of pH: R=([H^+]Rmax+ka,appRmin)/ka,app+[H^+] (1) where ka,app is the apparent dissociation constant of the immobilized dye. A least-squares linear regression was used to determine the parameters Rmin, Rmax and ka,app. The pka,app of the immobilized dye was calculated to be 7.61±0.05 for these conditions. This is in good agreement with the pka,app of HPTS in solution, which was calculated to be 7.72±0.02 under the same conditions.
# The modified dye is sensitive over the same range as HPTS. The calibration curve for DHDS was fit to an expression similar to that for monoprotic acids, but for diprotic acids. The second hydroxyl group causes DHD to be sensitive over an extended range with two dissociation constants calculated to be pka1,app=7.03±0.02 and pka1,app=9.05±0.02 under these conditions.
# [2] = cited from earlier work; for pKa: literature value
# [3] = literature (11); cited from earlier work
Structure (SMILES),pKa [1],pKa [2],further results
"O=S(=O)([O-])c1cc(S(=O)(=O)[O-])c2ccc3c(O)cc(O)c4ccc1c2c43.[Na+].[Na+] [DHDS, 6,8-dihydroxy-1,3-pyrenedisulfonic acid disodium salt]",–,–,"pka1,app (first dissociation constant) [1]: 7.03±0.02; pka1,app (second printed dissociation constant) [1]: 9.05±0.02; second pKa ([2]; literature value (9)): approximately 8.5"
"O=S(=O)([O-])c1cc(O)c2ccc3c(S(=O)(=O)[O-])cc(S(=O)(=O)[O-])c4ccc1c2c34.[Na+].[Na+].[Na+] [HPTS, 8-hydroxy-1,3,6-pyrene trisulphonic acid trisodium salt]",7.72 ± 0.02,approximately 7.3,toxicity [3]: low toxicity
"C=C(C)C(=O)Oc1cc(O)c2ccc3c(S(=O)(=O)O)cc(S(=O)(=O)O)c4ccc1c2c34 [MA-HPDS, 6-methacryloyl-8-hydroxy-1,3-pyrene disulfonic acid]",7.61 ± 0.05,–,–
O=C1OC2(c3cc(Cl)c(O)cc3Oc3cc(O)c(Cl)cc32)c2ccccc21 [dichlorofluorescein],–,~4,–
